Measured values taken from patent US20120309821A1, “Use of epigallocatechin-3-gallate for immune regulation” (NATIONAL DEFENSE MEDICAL CENTER, priority 2011, published 2012).

How the values were obtained:
Format in all cases: in vivo, mouse
[1] = test system: NF-κB p65; test: Renal nuclear NF-κB p65 activation ELISA (TransAM); settings: 120 mg/kg by gavage daily; week 34; increase seen in disease control
Procedure: Female NZB/W F1 mice were purchased from the Animal Center of the National Taiwan University (Taipei, Taiwan, ROC) and, at 12 weeks of age, were divided into two groups, one of which was given normal saline and served as the disease control, while the other was given 120 mg/kg body weight of EGCG (Ryss Lab, Inc., CA, USA) (this dose is a slight modification of those used in previous in vivo studies) by gavage daily till sacrificed at 34-weeks-old. 8-Week-old NZB/W F1 female mice (prior to onset of autoantibody production) were used as normal controls. Urine samples were collected in metabolic cages every 2 weeks and urine protein levels were measured, and serum samples were used to measure serum levels of blood urea nitrogen (BUN) and creatinine (Cr) as described previously (Ka, S. M. et al. Decoy receptor 3 ameliorates an autoimmune crescentic glomerulonephritis model in mice. J Am Soc Nephrol 18:2473-2485; 2007). […]
Nuclear protein from renal cortex was extracted using a Nuclear Extract Kit (Active Motif) according to the manufacturer's instructions and nuclear NF-κB p65 activation quantified using an ELISA-based TransAM NF-κB kit (Active Motif, Tokyo, Japan) according to the manufacturer's protocol by reading the absorbance on an ELISA plate reader (Bio-Tek, VT, USA) at 450 nm with a reference wavelength of 655 nm.

[2] = test system: IL-18; test: Serum IL-18 ELISA; settings: 120 mg/kg by gavage daily; week 34; vs disease control mice
Procedure: (§1) Female NZB/W F1 mice were purchased from the Animal Center of the National Taiwan University (Taipei, Taiwan, ROC) and, at 12 weeks of age, were divided into two groups, one of which was given normal saline and served as the disease control, while the other was given 120 mg/kg body weight of EGCG (Ryss Lab, Inc., CA, USA) (this dose is a slight modification of those used in previous in vivo studies) by gavage daily till sacrificed at 34-weeks-old. 8-Week-old NZB/W F1 female mice (prior to onset of autoantibody production) were used as normal controls. Urine samples were collected in metabolic cages every 2 weeks and urine protein levels were measured, and serum samples were used to measure serum levels of blood urea nitrogen (BUN) and creatinine (Cr) as described previously (Ka, S. M. et al. Decoy receptor 3 ameliorates an autoimmune crescentic glomerulonephritis model in mice. J Am Soc Nephrol 18:2473-2485; 2007). All animal experiments were performed upon the ethical approval of the Institutional Animal Care and Use Committee of the National Defense Medical Center, Taiwan and according to the ethical rules in the NIH Guide for the Care and Use of Laboratory Animals. Serum levels of IL-1β and IL-18 were measured using commercial ELISA kits (BD Biosciences) according to the manufacturer's instructions.

[3] = test system: NLRP3; test: Western blot of NLRP3 in kidney; settings: 120 mg/kg by gavage daily; week 34; increase seen in disease control
Procedure: as §1, with “[…] Antibodies to histone H3 (Cell Signaling) or β-actin (Santa Cruz) were used as internal controls for the nuclear” for “Serum levels of IL-1β”, “cytosolic target proteins, respectively.” for “IL-18 were measured using commercial ELISA kits (BD Biosciences) according to the manufacturer's instructions.”

[4] = test system: CD3+CD69+ cells (activated T cells); test: T cell activation in splenocytes by flow cytometry; settings: 120 mg/kg by gavage daily; week 34; increase seen in disease control
Procedure: as §1, with “Serum levels of IL-1β and IL-18 were measured using commercial ELISA kits (BD Biosciences) according to the manufacturer's instructions.” left out

[5] = test system: CD19+CD69+ cells (activated B cells); test: B cell activation in splenocytes by flow cytometry; settings: 120 mg/kg by gavage daily; week 34; EGCG-treated vs disease mice
Procedure: as §1, with “Serum levels of IL-1β and IL-18 were measured using commercial ELISA kits (BD Biosciences) according to the manufacturer's instructions.” left out

Substance: Epigallocatechin-3-gallate [EGCG]
- nuclear NF-κB p65 levels (ELISA, renal nuclear protein extracts) [1]: significantly inhibited
- serum levels of IL-18 [2]: significantly lower
- levels of NLRP3 protein in kidney tissues [3]: inhibited
- percentage of CD3+CD69+ cells (activated T cells) in CD3+ splenocytes [4]: not inhibited
- percentage of CD19+CD69+ cells (activated B cells) in CD19+ splenocytes [5]: no significant difference
